Tests used:
[1] = Blood level in mice after administration (HPLC of blood/plasma); type: in vivo, Mäuse; details: po; mouse blood, peroral 120 mg/kg, 30 min after administration; read-out: Konzentration
Description: Die pharmakodynamischen Eigenschaften der Verbindungen der Formel können beispielsweise wie folgt belegt werden: • Die zu untersuchenden Verbindungen der Formel oder (beispielsweise als Kontrolle) die entsprechende Verbindung der Formel werden in einem organischen Lösungsmittel, wie Dimethylsulfoxid (DMSO), in einer Konzentration von 240 mg/ml gelöst. Die resultierenden Lösungen werden mit 20% (w/v) Hydroxypropyl-ßcyclodextrin (HPßCD) verdünnt, um eine Konzentration der Testsubstanz von 12 mg/ml zu erhalten. Diese Lösung wird Mäusen oral durch künstliche Sonderernährung in einer Dosis von 120 mg/kg verabreicht. 30, 60, 90 und 120 min nach der Verabreichung werden die Tiere getötet und Blut entnommen. Pro Zeitpunkt werden drei bis vier Tiere untersucht. Das Blut wird heparinisiert und für die Analyse durch eine der folgenden beiden Methoden vorbereitet: Nach der ersten Methode wird Vollblut deproteinisiert durch Mischen eines Volumenteils Blut mit einem Volumenteil Acetonitril; nach Zentrifugation (10 000 g, 5 min) wird der Überstand durch Reversed-Phase-HPLC untersucht. Nach der zweiten Methode werden 2 µl einer 1 mM Lösung eines internen Standards (wie einer anderen Verbindung der Formel I) zu 0,5 ml heparinisiertem Blut zugegeben. Das Blut wird zentrifugiert (10 000 g, 5 min), und das Plasma mit demselben Volumen Acetonitril vermischt. […]

HIV-1 = assay: Protection of MT-2 cells against HIV-1 infection (reverse transcriptase activity in supernatant); type: cell-based; details: Human immunodeficiency virus 1, MT2, 96 h; lowest concentration lowering RT activity by 90 %; MT-2 cells with HIV-1, 4 days incubation; read-out: ED90 (the source's name)
Excerpt: In einem weiteren Test kann gezeigt werden, dass die Verbindungen der vorliegenden Erfindung Zellen, die normalerweise von HIV infiziert werden, vor einer solchen Infektion schützen oder zumindest eine solche Infektion verlangsamen. Dabei wird die menschliche T-Zell-Leukämie Zellinie MT-2 (Science 229, 563 (1985)), die empfindlich gegen den zytopathogenen Effekt von HIV ist, mit HIV-1 allein oder mit HIV-1 in Gegenwart einer der erfindungsgemässen Verbindungen inkubiert und nach einigen Tagen die Lebensfähigkeit der so behandelten Zellen beurteilt. Hierzu werden die MT-2-Zellen in RPMI 1640-Medium (Gibco, Schweiz; RPMI 1640 enthält ein Aminosäurengemisch ohne L-Gln), das mit 10% hitzeinaktiviertem fetalem Kälberserum, L-Glutamin, Hepes (2-[4-(2-Hydroxyethyl)-1-piperazino]-ethansulfonsäure) und Standardantibiotika supplementiert ist, bei 37 °C in befeuchteter Luft mit 5% CO2 gehalten. 50 µl der jeweiligen Testverbindung in Kulturmedium und 100 µl HIV-1 in Kulturmedium (800 TCID50/ml) (TCID50 = Tissue Culture Infectious Dose 50 = Dosis, die 50% der MT-2-Zellen infiziert) werden zu 4x1 0^3 exponentiell wachsenden MT-2-Zellen in 50 µl Kulturmedium pro Vertiefung auf 96-Loch-Mikrotiterplatten gegeben. Parallele Ansätze auf einerweiteren Mikrotiterplatte mit Zellen und Testverbindung erhalten 100 µl Kulturmedium ohne Virus. […]

**Q.** With COc1ccc(C[C@H](C[C@H](O)[C@H](Cc2ccccc2)NC(=O)OC(C)(C)C)C(=O)N[C@H](C(=O)N[C@@H](Cc2ccccc2)C(=O)N2CCOCC2)C(C)C)cc1 [5(S)-(tert-Butoxycarbonylamino)-4(S)-hydroxy-2(R)-(p-methoxy-phenylmethyl)-6-phenyl-hexanoyl-(L)-valyl-(L)-phenyl-alanyl-morpholin-4-ylamid] as the compound, how does the concentration at 0.5 h [1] read?
**A.** 10.8 µM

**Q.** And the EC90 (HIV-1)?
**A.** 100 nM

From EP0618222A2, “Dipeptid derivatives of 5-amino-4-hydroxy-hexanoic acid” (CIBA-GEIGY AG, priority 1993, dated 1994)
